Assay results as given in patent US20250186374A1 (priority 2022, published 2025).
Entries after “also recorded” stand apart in the source; their conditions may differ.

What was measured:
[1] = test system: SARS-CoV-2; assay: microbe, parasite or virus in culture; format: cell-based
[2] = in vitro
[3] = molecular target: T1, SARS-CoV-2 3CLpro (Severe acute respiratory syndrome coronavirus 2, UniProt P0DTD1); assay: Enzyme kinetics, Lineweaver-Burk plots; format: biochemical; conditions: for Inhibition Type: Michaelis-Menten kinetics; for effect on Vmax of 3CLpro: compared to the DMSO control, 5 μM or 10 μM inhibitor
[4] = molecular target: T1, SARS-CoV-2 3CLpro; assay: Inhibition of cleavage of TriPro substrate protein, SDS-PAGE; format: biochemical; conditions: 0.8 μM 3CLpro
[5] = molecular target: T1, SARS-CoV-2 3CLpro; assay: Surface plasmon resonance binding to immobilized 3CLpro; conditions: 0.164-100 μM, 25° C.
[6] = molecular target: T1, SARS-CoV-2 3CLpro; assay: biochemical; format: biochemical; conditions: for IC50: FRET peptide substrate, 200 nM 3CLpro, read-out: SARS-CoV-2 3CLpro IC50; for inhibitory activity in library screen: compound concentration of 100 μM
[7] = test system: SARS-CoV-2; assay: Clinical examples 1-3, treatment of COVID-19 / SARS-CoV-2 positive subjects; format: in vivo
Text: Example 1: The following example describes treatment strategies for COVID-19 involving oral administration of an antiviral composition.
A physician diagnoses a patient with COVID-19. The patient is experiencing mild symptoms. […] The patient is to take the tablet once a day for one week. The patient is highly responsive and their symptoms go away after 2 days.
Example 2: The following example describes treatment strategies for intravenous administration of an antiviral composition.
A diabetic patient is hospitalized with severe COVID-19. […] The medication is added to an IV solution and delivered intravenously, twice a day for three days. The patient is highly responsive and experiences a reduction in their symptoms during the initial treatment period.
A subject tests positive for SARS-CoV-2 but is asymptomatic. […] The subject sprays the inside of their nose once a day for 5 days. The subject remains asymptomatic.

[8] = test system: A549 and Vero E6 cells; conditions: Table 1; cell line not given
[9] = molecular target: T1, SARS-CoV-2 3CLpro; assay: Microscale thermophoresis ligand binding; conditions: 10 nM labeled 3CLpro; read-out: KD (MST)
Text: Monolith NT.115 Microscale Thermophoresis (MST) instrument (NanoTemper Technologies) was used for this assay. Monolith protein labeling kit RED-NHS was purchased from NanoTemper Technologies. Briefly, 3CLpro protein was labeled using RED-NHS labelling kit (NanoTemper) following the manufacturer's instructions. […] The assay was read in 20% excitation power and medium MST power.

[10] = Severe acute respiratory syndrome coronavirus 2, 48 h

CC(C)(C)NC(=O)N[C@H](C(=O)N1C[C@H]2[C@@H]([C@H]1C(=O)NC(CC1CCC1)C(=O)C(N)=O)C2(C)C)C(C)(C)C (stereo partly shown) [Boceprevir, boceprevir, reference compound]
EC50 ([1]; Severe acute respiratory syndrome coronavirus 2, Table 2 and text, SARS-CoV-2 viral replication, cell-based antiviral assay): 15.6 µM

O=C(Nc1ccc([N+](=O)[O-])cc1Cl)c1cccc([N+](=O)[O-])c1O [JMX0207]
EC50 [1, 10]: 1.22 µM
CC50 at 48 h [2]: 13.2 µM

CC(C)[C@H](NC(=O)c1cc(Cl)ccc1O)C(=O)Nc1ccc([N+](=O)[O-])cc1Cl [JMX0281]
EC50 [1, 10]: 2.08 µM
CC50 at 48 h [2]: 8.32 µM

O=C(NC(Cc1ccccc1)C(=O)Nc1ccc([N+](=O)[O-])cc1Cl)c1cc(Cl)ccc1O (stereo not shown) [JMX0285]
EC50 [1, 10]: 3.03 µM
CC50 at 48 h [2]: 6.13 µM

Cl.NCCOc1ccc(Cl)cc1C(=O)NCC(=O)Nc1ccc([N+](=O)[O-])cc1Cl [JMX0286, 2-(2-Aminoethoxy)-5-chloro-N-(2-((2-chloro-4-nitrophenyl)amino)-2-oxoethyl)benzamide hydrochloride]
EC50 [1, 10]: 2.25 µM
Inhibition Type ([3]; hydrochloride): non-competitive inhibition mechanism
effect on Vmax of 3CLpro [3]: reduced the Vmax values
inhibition of cleavage of the TriPro substrate protein ([4]; hydrochloride): inhibited the cleavage of the TriPro substrate protein in a dose dependent manner; also recorded: inhibit the digestion of protein substrates in a dose dependent manner
Kd ([5]; read-out: KD (SPR, steady-state affinity model)): 9.8 µM
IC50 [6]: 4.8 µM
inhibitory activity in library screen [6]: prominent inhibitory activity
side effects ([7]; Example 1: oral tablet 50 mg once a day for one week): No side effects are reported
clinical outcome ([7]; Example 1: oral tablet 50 mg once a day for one week, mild COVID-19): completely recovers
CC50 [8]: 3.78 µM

CC(C)(C)OC(=O)NCCOc1ccc(Cl)cc1C(=O)NCC(=O)Nc1ccc([N+](=O)[O-])cc1Cl [JMX0301, tert-Butyl(2-(4-chloro-2-((2-((2-chloro-4-nitrophenyl)amino)-2-oxoethyl)carbamoyl)phenoxy)ethyl)carbamate]
EC50 (μM) ([1]; Table 2, SARS-CoV-2 viral replication, cell-based antiviral assay): No Dose
Inhibition Type [3]: non-competitive inhibition mechanism
effect on Vmax of 3CLpro [3]: reduced the Vmax values
inhibition of cleavage of the TriPro substrate protein [4]: inhibited the cleavage of the TriPro substrate protein in a dose dependent manner; also recorded: inhibit the digestion of protein substrates in a dose dependent manner
Kd [9]: 34 µM
KD (SPR, steady-state affinity model) [5]: did not show binding
IC50 [6]: 4.5 µM
inhibitory activity in library screen [6]: prominent inhibitory activity
clinical outcome ([7]; Example 2: 100 mg with remdesivir 100 mg intravenously twice a day for three days, then 50 mg tablet, severe COVID-19): completely recovers
side effects ([7]; Example 2: intravenous with remdesivir, then tablet): No side effects are reported

O=C(Nc1ccc(C(F)(F)F)cc1Cl)c1cc(Cl)ccc1O [JMX0308]
EC50 value (strong inhibition of SARS-CoV-2 virus) [1]: sub-micromolar range
EC50 [1, 10]: 0.806 µM

O=C(Nc1ccc(C(F)(F)F)cc1Cl)c1cccc([N+](=O)[O-])c1O [JMX0310, N-(2-Chloro-4-(trifluoromethyl)phenyl)-2-hydroxy-3-nitrobenzamide]
EC50 [1, 10]: 2.41 µM
CC50 [8]: 10.1 µM

O=C(Nc1cc(F)cc(C(F)(F)F)c1)c1cc(Cl)ccc1O [JMX0312]
EC50 [1, 10]: 1.13 µM
CC50 at 48 h [2]: 1.97 µM

O=C(Nc1cc(F)cc(C(F)(F)F)c1)c1cccc([N+](=O)[O-])c1O [JMX0317, N-(3-Fluoro-5-(trifluoromethyl)phenyl)-2-hydroxy-3-nitrobenzamide]
EC50 [1, 10]: 4.03 µM
CC50 [8]: 11.7 µM

O=C(Nc1ccc(F)c(F)c1)c1cc(Cl)ccc1O [JMX0321]
EC50 [1, 10]: 1.19 µM
CC50 at 48 h [2]: 3.76 µM

O=C(Nc1cc(C(F)(F)F)cc(C(F)(F)F)c1)c1cc(Cl)ccc1O [JMX0325]
EC50 value (strong inhibition of SARS-CoV-2 virus) [1]: sub-micromolar range
EC50 [1, 10]: 0.123 µM
CC50 at 48 h [2]: 1.81 µM
